Data on one compound can be found in EP4817617A1, “LIPOSOME AGENT, NKT CELL ACTIVATOR, PHARMACEUTICAL COMPOSITION, AND USES OF THESE” (Ambicion Co., Ltd., priority 2023, dated 2025).

The experiment relates to triple-negative breast cancer 4T1 cells. The experiment can be described thus: Antitumor effect of α-GalCer liposome against breast cancer by repetitive subcutaneous administration. The experiment is classed as in vivo, BALB/c mouse. The following applies: s.c. left flank, 4 times every 5 days, α-GalCer 15 µg; n=2 shown. As to the method:
The following liposome samples prepared using PBS in Example 1 were used. • (1-2) 50% α-GalCer / negatively charged PEG terminal -OH liposome, 100 nm • (1-11) 0% control / negatively charged PEG terminal -OH liposome, 100 nm The liposome samples were adjusted to a PEGylated liposome concentration of 1 mg/mL (in terms of total lipids), and used as administration samples. PBS was used for the adjustment of the PEGylated liposome concentration. The administration sample prepared from the aforementioned (1-2) was used as the α-GalCer liposome administration sample of the Example (αGal lipo), and the administration sample prepared from the aforementioned (1-11) was used as the control liposome administration sample (Ctrl lipo). In addition, a free GalCer sample (Free αGal) in which free α-GalCer not formulated into a liposome was suspended in PBS, and PBS, were each used as administration samples.
As breast cancer cells, triple-negative breast cancer 4T1 cells were used. 4T1 cells (5.0×10^5 to 1.0×10^6 cells/mouse) were subcutaneously inoculated into the vicinity of the second teat from the top of the left chest of a BALB/c mouse (5 weeks old, female, n=2). When the average tumor volume reached 40 to 100 mm^3, the mice were randomly divided into groups. Then, the administration sample was subcutaneously injected into the left flank of the mouse (Day 0). […]

`CCCCCCCCCCCCCCCCCCCCCCCCCC(=O)N[C@@H](CO[C@H]1O[C@H](CO)[C@H](O)[C@H](O)[C@H]1O)[C@H](O)[C@H](O)CCCCCCCCCCCCCC` [α-GalCer, (2S,3S,4R)-1-O-(α-D-galactopyranosyl)-2-hexacosanoylamino-1,3,4-octadecanetriol]: the “increase in tumor volume” value is on record as “suppressed”.
